Patent USRE40667E1, “[R-(R*R*)]-2-(4-fluorophenyl)-β,δ-dihydroxy-5-(1-methylethyl-3-phenyl-4-[(phenylamino)carbonyl]-1H-pyrrole-1-heptanoic acid, its lactone form and salts thereof” (Warner-Lambert Company LLC, priority 1989, dated 2009)

Test system: biosynthesis of cholesterol
Test: CSI screen (cholesterol synthesis inhibition) as disclosed in U.S. Pat. No. 4,681,893
Assay type: biochemical
Source text: The compounds according to present invention and especially according to the compound of the formula I inhibit the biosynthesis of cholesterol as found in the CSI screen that is disclosed in U.S. Pat. No. 4,681,893 which is now also incorporated by reference therefor. The CSI data of the compound I, its enantiomer the compound II and the racemate of these two compounds are as follows: […]

| Compound | IC50 |
| --- | --- |
| CC(C)c1c(C(=O)Nc2ccccc2)c(-c2ccccc2)c(-c2ccc(F)cc2)n1CC[C@@H](O)C[C@@H](O)CC(=O)O (single isomer, unassigned) [[R—(R*R*)] isomer, [R-(R*,R*)]-2-(4-fluorophenyl)-β,δ-dihydroxy-5-(1-methylethyl)-3-phenyl-4-[(phenylamino)carbonyl]-1H-pyrrole-1-heptanoic acid] | 4.4 nM |
| CC(C)c1c(C(=O)Nc2ccccc2)c(-c2ccccc2)c(-c2ccc(F)cc2)n1CCC(O)CC(O)CC(=O)O (single isomer, unassigned) [[S—(R*R*)] isomer] | 440 nM |
